Assay: gradient 5% acetonitrile 3 min, to 50% in 2 min, to 85% in 15 min, held 3 min, 100 µL/min
Settings: column: Zorbax Extend-C18 2.1 x 50 mm; eluents: water / acetonitrile, 0.1% formic acid
Procedure, shortened: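 Each retention time is based on an adduct peak selected computationally and verified by manual inspection. Measurements used HPLC–quadrupole time-of-flight mass spectrometry in positive and negative ionization mode on mixtures of ~100 pure standards. Chromatography ran on a Zorbax Extend-C18 column (2.1 × 50 mm, 1.8 μm) at 100 μL/min with water and acetonitrile, each containing 0.1% formic acid, and dead and dwell volumes of 40 μL and 900 μL.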

Row | RP-LC retention time [s] | SMILES
1 | 1210 | CCOc1ccc(NC(=O)c2cc3oc(C)cc3n2Cc2ccc(C)cc2)cc1
2 | 592 | N#Cc1cccc(S(=O)(=O)N2CCc3nc[nH]c3C2)c1
3 | 1110 | CCOC(=O)c1ccc(OC(=O)c2cn(CC)c(=O)c3ccccc23)cc1
4 | 567 | Cc1nnc(CNC(=O)c2cccc(-n3cnnn3)c2)o1
5 | 813 | Cn1c(=O)c2c(nc3n(-c4ccc(O)cc4)c(-c4ccc(Cl)cc4)cn23)n(C)c1=O
6 | 801 | COc1ccc(-c2c(C)noc2NC(C)=O)cc1S(=O)(=O)N1CCC(C)CC1
7 | 953 | Cn1c(=O)sc2cc(S(=O)(=O)N3CCC(C(=O)Nc4cccc(Cl)c4)CC3)ccc21
8 | 725 | Cc1ccc(NC(=O)c2sc3nc[nH]c(=O)c3c2C)c(C)c1
9 | 811 | Cc1ccc(C(=O)N2C[C@@H]3C[C@H](NC(=O)c4ccccc4)[C@H]2C3)cc1F
10 | 678 | Cc1ccc(CNc2nnc(N3CCOCC3)c3ccccc23)cc1
11 | 1050 | Cc1ccc(N2CC(c3noc(COc4cccc(C)c4)n3)CC2=O)cc1 (stereo not given)
12 | 650 | Cc1nc2c(c(=O)n1CC(=O)NCc1ccccc1Br)CCN(Cc1ccccc1)C2
13 | 803 | CN1C(=O)C2(CCN(C(=O)Cc3cccc(F)c3)C2)c2ccccc21 (stereo not given)
14 | 811 | CCn1cc(C2=CCN(C(=O)Nc3ccc(OC)cc3)CC2)c2cccnc21
15 | 810 | CCN(CC)CCOCCOC(=O)C1(c2ccccc2)CCCC1
16 | 826 | CN1C(=O)c2cc(C(=O)NCCCc3ccccc3)nn2CC1(C)C(=O)NC1CCCC1 (stereo not given)
17 | 916 | CCOc1ccc(-c2noc(Cn3cnc4c(oc5ccccc54)c3=O)n2)cc1OC
18 | 848 | COc1cc(NC(=O)C2CCN(S(=O)(=O)c3c(C)nn(-c4ccccc4)c3C)CC2)cc(OC)c1
19 | 911 | Cc1cc(Cl)ccc1OCC(=O)Nc1ccc2c(c1)Sc1ncccc1C(=O)N2C
20 | 966 | c1ccc(-c2nc(-c3cccc(-c4ccn[nH]4)c3)no2)cc1
21 | 1230 | Cc1ccc(Cl)cc1NC(=O)Cc1c(C)nn(-c2nc(-c3ccccc3)cs2)c1C
22 | 676 | O=c1cc[nH]c2c(Cl)cccc12

Row | RP-LC retention time [s] | SMILES
23 | 1220 | Cc1ccc(S(=O)(=O)N2CCC(C)CC2)cc1-c1nnc(-c2ccc(F)cc2)o1
24 | 904 | Cc1cc2c(c(=O)n(-c3ccccc3)c(=O)n2CC(=O)Nc2ccccc2C(F)(F)F)n1C
25 | 988 | O=C(NCc1cccc(Cl)c1)C1CCCN(c2nc3ccsc3c(=O)n2Cc2ccccc2)C1 (stereo not given)
26 | 682 | Cc1ccc(N2CCN(C(=O)c3cn4cccc(C)c4n3)CC2)cc1
27 | 570 | CS(=O)(=O)NCC1CCC(C(=O)NCCCn2ccnc2)CC1 (stereo not given)
28 | 844 | COc1ccc(C)cc1NC(=O)C1N(C(C)C)C(=O)C12CCCC2 (stereo not given)
29 | 681 | CC(=O)Nc1ccc(OCC(=O)NCc2cc(F)ccc2F)nc1
30 | 783 | CN1C(=O)c2cccnc2Sc2cc(NC(=O)c3c(F)cccc3Cl)ccc21
31 | 1020 | Cc1cccc(N2CCN(C(=O)Cn3nc(C(=O)N4CCCC4)c4ccccc43)CC2)c1C
32 | 694 | COc1cc(NC(=O)N2CCCN(c3ccc(=O)n(-c4ccccc4)n3)CC2)cc(OC)c1OC
33 | 868 | Cc1cccc(CNC(=O)C2CCCN2S(=O)(=O)c2cc3c(cc2Cl)NC(=O)CO3)c1 (stereo not given)
34 | 810 | O=C(Nc1cccs1)N1CCC(c2ccccc2)C1 (stereo not given)
35 | 751 | CN(C)C(=O)c1cc2c(s1)CCC(C(=O)NC1CCCCCC1)C2 (stereo not given)
36 | 1180 | O=C(Cn1nc(N2CCCCCC2)c2ccccc2c1=O)Nc1cccc(Cl)c1
37 | 794 | CCOC(=O)c1sc2ccccc2c1S(=O)(=O)N1CCN(c2ccccn2)CC1
38 | 955 | Cc1ccc(-c2noc(C3CC(=O)N(c4ccc5c(c4)OCO5)C3)n2)cc1 (stereo not given)
39 | 720 | COc1ccc(-c2cc(=O)n3c4ccccc4n(CC(=O)Nc4ccc5c(c4)OCO5)c3n2)cc1
40 | 868 | Cc1nc(-c2ccccc2)oc1CC(=O)N1CCCCCC1
41 | 732 | CCc1cnc2c(c1SCC(=O)N1CCCC1)c(=O)n(C)c(=O)n2C
42 | 881 | COc1ccc(OC)c(NC(=O)Cn2c(C(F)(F)F)nc3cc4c(cc32)OCCO4)c1
43 | 657 | Cc1ccc(-c2nc3ccccn3c2NC(=O)NCc2ccccc2)cc1
44 | 716 | O=C(NC1CCCC1)C1CCCN(c2ccc3cc(S(=O)(=O)N4CCCC4)ccc3n2)C1 (stereo not given)

More lines, now with the values behind:

Row | SMILES | RP-LC retention time [s]
45 | O=C(CCCCCCC(=O)Nc1ccccc1)NO | 660
46 | COc1cc2c(cc1O)CC1c3c(cc(O)c(OC)c3-2)CCN1C (stereo not given) | 628
47 | Cc1nc2cccnc2n1C1CCN(C(=O)Nc2ccc3c(c2)CCC3)C1 (stereo not given) | 620
48 | COc1ccc(N2CCN(C(=O)c3cn4c(n3)CCCC4)CC2)cc1 | 574
49 | CCCOc1ccc(-c2nnc3sc(-c4ccncc4)nn23)cc1 | 642
50 | Cc1cc(C)cc(S(=O)(=O)N2CCc3c(c(-c4nnc(-c5ccccc5F)o4)nn3C)C2)c1 | 998
51 | CSc1ccc(-c2nc3ncccn3c2Nc2ccc(C)cc2C)cc1 | 898
52 | CC(C)CC(=O)Nc1ccc(-n2cnc(C(=O)NC3CCCCCC3)c2)nc1 | 865
53 | O=C(NCc1ccc(-c2nc(-c3cccs3)no2)s1)C1CCC1 | 910
54 | COc1ccc(NC(=O)c2cnc(N3CCC4(CC3)OCCO4)nc2N)cc1 | 635
55 | COc1ccc(C(=O)N2CCN(c3ccc(-c4nc(C)cs4)cn3)CC2)cc1F | 819
56 | O=C(C1CC(=O)N(c2cccc(-c3noc(C4CCC4)n3)c2)C1)N1CCN(c2ccccc2)CC1 (stereo not given) | 1010
57 | COCCCNC(=O)N1CCN(Cc2nc3cc(C(=O)N(C)C)ccc3n2C)CC1 | 560
58 | Cc1[nH]c(C)c(S(=O)(=O)N2CCN(c3ccccn3)CC2)c1C(=O)N1CCCC1 | 586
59 | O=C(NC1CCN(Cc2ccccc2)CC1)C1CC(=O)N(CCc2ccccc2)C1 (stereo not given) | 600
60 | CCNS(=O)(=O)c1cccc(-c2nnc(-c3ccc(C)cc3)o2)c1 | 922
61 | COc1ccc(-c2nn3c(-c4ccc5ccccc5n4)nnc3s2)cc1 | 975
62 | COc1ccccc1C(=O)Nc1ccc2nc(N3CCN(C4CCCCC4)CC3)cc(C(=O)O)c2c1 | 638
63 | COCCNC(=O)c1nc2ccccn2c1-c1ccc(F)cc1 | 699
64 | Cc1nn(C)c(C)c1S(=O)(=O)N1CCC(c2noc(-c3cccnc3)n2)C1 (stereo not given) | 662
65 | COc1ccccc1-c1nc2nccc(-c3cccnc3)n2n1 | 655
66 | COCCCNC(=O)N1CCCN(C2=NS(=O)(=O)C(c3ccccc3)=C2C)CC1 | 679
67 | CCC(C)NC(=O)C1CCN(c2cnc(N3CCOCC3)nc2)CC1 (stereo not given) | 638

Row | SMILES | RP-LC retention time [s]
68 | CN(Cc1ccccc1)C(=O)c1ccc(-c2cccs2)nc1 | 920
69 | CCc1nccn1Cc1nc(-c2ccc(Br)cc2)no1 | 677
70 | COCCCNC(=O)N1CC(n2cc(COc3ccc(F)cc3)nn2)C1 | 691
71 | COc1ccc(OC)c(S(=O)(=O)NCc2ccc3c(c2)CCN3C(=O)c2ccccc2)c1 | 896
72 | Cc1cc2[nH]c(C(=O)Nc3ccccc3F)c(CN3CCOCC3)c2s1 | 686
73 | CCCc1nnc(NC(=O)C2CC(=O)N(CCc3c[nH]c4ccc(Cl)cc34)C2)s1 (stereo not given) | 764
74 | COC(=O)c1ccccc1NC(=O)Cn1nc2nc(N3CCCC(C)C3)ccn2c1=O (stereo not given) | 863
75 | CCn1nc(C)c(CCNC(=O)C2CCCN(c3nn4c(=O)c5c(nc4s3)CCCC5)C2)c1C (stereo not given) | 634
76 | O=C(c1cc2c(s1)-c1ccsc1CC2)N1CCN(c2ccccn2)CC1 | 698
77 | CCN(CC)CCCNC(=O)c1cccn1-c1nnc(N2CCCC2)s1 | 562
78 | O=C(CCc1conc1-c1ccc(F)cc1)NC1CCCCC1 | 927
79 | O=C(CCc1conc1-c1ccc(F)cc1)NCc1ccccc1 | 865
80 | O=C(NCc1ccc(F)cc1)N1CCC(Nc2cccnc2)C1 (stereo not given) | 591
81 | Cc1ccc(S(=O)(=O)N2CCC(CN3CCCCCC3)CC2)cc1F | 686
82 | O=C1CC(C(F)(F)F)c2c(c(C(=O)O)cn2-c2cccc(Cl)c2)N1 (stereo not given) | 786
83 | COC(=O)c1c(C)[nH]c(C(=O)N2CCC(CC(=O)N3CCCC3)CC2)c1C | 628
84 | COc1ccc2c(c1)C1(CCN(C(=O)c3ccccc3C(F)(F)F)C1)C(=O)N2 (stereo not given) | 714
85 | Cc1cccc(NC(=O)C2CCN(S(=O)(=O)c3cc(-c4noc(C5CC5)n4)cs3)CC2)c1C | 1020
86 | CC(=O)NCC(O)c1ccc([N+](=O)[O-])cc1 (stereo not given) | 661
87 | CCC(C)NC(=O)CCn1c(=O)c2ccccc2n2c(=O)n(Cc3ccccc3)nc12 (stereo not given) | 856
88 | CCn1cc(CN2CCC(C(=O)NCCCc3ccccc3)CC2)c2cc(OC)ccc21 | 765
89 | O=C(Cn1nc(Cc2cccnc2)c2ccccc2c1=O)Nc1ccc(Cl)cn1 | 608
90 | CN1CCN(c2nc3ccccc3nc2Cl)CC1 | 650

Source: the METLIN SMRT retention time set (Domingo-Almenara et al. 2019)
